Source: patent publication US10391096B2, “Method for treating thrombotic disorders using quercetin-containing compositions” (Quercegen Pharmaceuticals LLC, priority 2011, dated 2019)

Key:
[1] = tested on: D-dimer; assay: D-dimer level in blood of hypertensive patients treated with quercetin; format: in vivo, humans
Description: As mentioned above, PDI plays a critical role in the initiation of the coagulation cascade. By blocking this critical enzyme activity, quercetin can prevent thrombus formation. The antithrombotic activity of quercetin can be evaluated in humans by measuring D-dimer levels in plasma samples from patients treated with quercetin. D-dimer, a small protein fragment present in the blood, is a fibrin degradation product. The level of D-dimer in the blood increases after a thrombotic event due to its release from blood clots via fibrinolysis. […] Hypertensive patients are prone to thrombotic events.

[2] = hypertensive patients; cited from earlier work
[3] = tested on: platelet aggregation; settings: in vitro; cited from earlier work

For `O=c1c(O)c(-c2ccc(O)c(O)c2)oc2cc(O)cc(O)c12` [Quercetin, quercetin], which “level of D-dimer in blood” value [1] is on record?
The value was “reduction in the level of D-dimer”.

And the blood pressure [2]?
Its blood pressure is “reduce blood pressure”.

What about the platelet aggregation [3] of the same compound?
Its platelet aggregation is “inhibit platelet aggregation”.
